This is an account of results in publication PMC11444284, “Chloroplastic ascorbate modifies plant metabolism and may act as a metabolite signal regardless of oxidative stress” (Plant Physiology, 2024).

For experiment [1], the target named is T1, SBPase (Arabidopsis thaliana, UniProt P46283).
T1 construct: gene At3g55800
T1 sequence (P46283 75-393): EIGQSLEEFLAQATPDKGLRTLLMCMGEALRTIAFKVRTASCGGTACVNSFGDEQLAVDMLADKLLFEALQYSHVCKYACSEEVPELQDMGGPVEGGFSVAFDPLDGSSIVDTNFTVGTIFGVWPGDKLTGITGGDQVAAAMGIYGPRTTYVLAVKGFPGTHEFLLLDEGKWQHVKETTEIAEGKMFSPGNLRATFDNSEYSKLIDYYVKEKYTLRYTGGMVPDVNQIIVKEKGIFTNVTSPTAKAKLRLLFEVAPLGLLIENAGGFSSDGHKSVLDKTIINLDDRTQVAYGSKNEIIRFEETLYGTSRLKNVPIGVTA
In words: malachite green phosphate release assay. The format is biochemical. Particulars: read-out: % inhibition at 10 mM.

In experiment [2] the target is T1, SBPase. Put plainly: malachite green phosphate release assay. The following applies: 500 µM; alternative substrate; 15 mM MgCl2, 10 mM DTT; thioredoxin F1-activated; room temperature activation. It is filed as biochemical.

With `O=C1O[C@H]([C@@H](O)CO)C(O)=C1O` [Ascorbate], at SBPase [1], the inhibition at 10000 µM was around 57%. `O=P(O)(O)OC[C@H]1OC(O)(COP(=O)(O)O)[C@@H](O)[C@@H]1O` (some centres unmarked) [fructose-1-6-bisphosphate]: the “malachite green phosphate release assay” value on SBPase [2] was “conversion rate of the alternative SBPase substrate fructose-1-6-bisphosphate to fructose-6-phosphate”.

As usually defined, the inhibition is the change of the read-out against control, counted positive when it falls.
